{"source": "patent US10945972B2", "about": "“Particulate materials” (Nektar Therapeutics, priority 2002, dated 2021)", "assay": "Aerosol analysis at 60 LPM, Turbospin (Example 11)", "method": "The aerosol performance of a SEDS™ processed sample of bromocriptine mesylate was assessed in a unit-dose passive inhaler device (Turbospin PH & T (Italy)), at a peak inspiratory flow rate (PFIR) of 28.3 LPM and 60 LPM.", "note": "Counter-ions that a name gives are not always drawn.", "data": [{"smiles": "CC(C)C[C@H]1C(=O)N2CCC[C@H]2[C@]2(O)O[C@](NC(=O)[C@@H]3C=C4c5cccc6[nH]c(Br)c(c56)C[C@H]4N(C)C3)(C(C)C)C(=O)N12", "note": "[SEDS bromocriptine, bromocriptine mesylate]", "values": [{"measurement": "aerodynamic diameter of aerosol particles", "result": 4.2, "unit": "μm"}]}]}
